Measured values taken from US20180155757A1, “IDENTIFICATION OF BACTERIA THAT ARE RESISTANT TO CARBAPENEMS BY MEMBRANE IMPERVIOUSNESS” (BIOMÉRIEUX, priority 2015, published 2018).

Key:
Test in all cases: Etest MIC of indicator carbapenems on MH II agar without/with PMBN
Assay type in all cases: cell-based
[1] = tested on: E. cloacae 0901026 (KPC-2 producer)
Experimental: (§1) The determinations of antibiotic MIC were carried out on solid culture media with the Etest® method. To do this, Etest® strips (bioMérieux, France) were used: • Etest® Imipenem IM 32, and • Etest® Ertapenem ETP 32, and also solid culture media, differing from one another by virtue of their non-inhibitory concentrations of PMBN.
(§2) These solid culture media are prepared in Petri dishes (0=145 mm; V=50 ml) on a base of MH II Agar (Becton Dickinson®, United States), more or less supplemented with PMBN. The PMBN concentrations range from 0 up to concentrations equivalent to one fifth of the MIC of PMBN (⅕ MICPMBN).
(§3) Using a swab and the Retro C80™ rota-plater (bioMérieux, France), the culture media were inoculated with the bacteria, originating from an inoculum of 0.5 McFarland, prepared in 0.85% NaCl solution from colonies subcultured the day before on MH II agar.
(§4) The various Etest® strips are then deposited on the surface of the culture media. After 16 to 20 hours of incubation at 35° C., the MICS were read.
(§5) To do this, imipenem and ertapenem were used as indicator carbapenems. Non-inhibitory concentrations of PMBN, equivalent to concentrations of one tenth ( 1/10), one eighth (⅛) and one fifth (⅕) of the MIC of PMBN, were applied.

[2] = tested on: E. coli 0506040 (VIM-1 producer)
Experimental: as §1, §2, §3, §4, §5

[3] = tested on: E. cloacae 1008073 (VIM-1 producer)
Experimental: as §1, §2, §3, §4, §5

[4] = tested on: S. marcescens 1008175 (IMP-1 producer)
Experimental: as §1, §2, §3, §4, §5

[5] = tested on: K. pneumoniae 0901027 (KPC-3 producer)
Experimental: as §1, §2, §3, §4, §5

[6] = tested on: K. pneumoniae 1104053 (OXA-48 producer)
Experimental: as §1, §2, §3, §4, §5

[7] = tested on: E. cloacae 1008096 (VIM-1 producer)
Experimental: as §1, §2, §3, §4, §5

Row | Structure (SMILES) | MIC ([1]; [PMBN] 0) [µg/mL] | MIC ([1]; [PMBN] MIC/5) [µg/mL] | MIC ([1]; [PMBN] MIC/8) [µg/mL] | MIC ([1]; [PMBN] MIC/10) [µg/mL] | MIC ([2]; [PMBN] 0) [µg/mL] | MIC ([2]; [PMBN] MIC/5) [µg/mL] | MIC ([2]; [PMBN] MIC/8) [µg/mL] | MIC ([2]; [PMBN] MIC/10) [µg/mL] | MIC ([3]; [PMBN] 0) [µg/mL] | MIC ([3]; [PMBN] MIC/5) [µg/mL] | MIC ([3]; [PMBN] MIC/8) [µg/mL] | MIC ([3]; [PMBN] MIC/10) [µg/mL] | MIC ([4]; [PMBN] 0) [µg/mL] | MIC ([4]; [PMBN] MIC/5) [µg/mL] | MIC ([4]; [PMBN] MIC/8) [µg/mL] | MIC ([4]; [PMBN] MIC/10) [µg/mL] | MIC ([5]; [PMBN] 0) [µg/mL] | MIC ([5]; [PMBN] MIC/5) [µg/mL] | MIC ([5]; [PMBN] MIC/8) [µg/mL] | MIC ([5]; [PMBN] MIC/10) [µg/mL] | also measured
1 | C[C@@H](O)[C@H]1C(=O)N2C(C(=O)O)=C(S[C@@H]3CN[C@H](C(=O)Nc4cccc(C(=O)O)c4)C3)[C@H](C)[C@H]12 [ETP, ertapenem] | 16 | 8 | 32 | 32 | 0.25 | 0.25 | 0.25 | 0.25 | 2 | 1 | 1 | 1 | 256 | 256 | 256 | 256 | 16 | 64 | 64 | 64 | MIC ([6]; [PMBN] 0): 4 µg/mL; MIC ([6]; [PMBN] MIC/5): 4 µg/mL; MIC ([6]; [PMBN] MIC/8): 4 µg/mL; MIC ([6]; [PMBN] MIC/10): 4 µg/mL; MIC ([7]; [PMBN] 0): 4 µg/mL; MIC ([7]; [PMBN] MIC/5): 4 µg/mL; MIC ([7]; [PMBN] MIC/8): 4 µg/mL; MIC ([7]; [PMBN] MIC/10): 4 µg/mL
2 | C[C@@H](O)[C@H]1C(=O)N2C(C(=O)O)=C(SCCN=CN)C[C@H]12 [IM, imipenem] | 16 | 8 | 8 | 16 | 4 | 4 | 4 | 4 | 0.25 | 0.25 | 0.25 | 0.25 | 128 | 256 | 256 | 128 | 8 | 16 | 8 | 16 | MIC ([6]; [PMBN] 0): 2 µg/mL; MIC ([6]; [PMBN] MIC/5): 2 µg/mL; MIC ([6]; [PMBN] MIC/8): 2 µg/mL; MIC ([6]; [PMBN] MIC/10): 2 µg/mL; MIC ([7]; [PMBN] 0): 4 µg/mL; MIC ([7]; [PMBN] MIC/5): 4 µg/mL; MIC ([7]; [PMBN] MIC/8): 8 µg/mL; MIC ([7]; [PMBN] MIC/10): 8 µg/mL
